Where two headings read alike, the source gives them in different places.
Legend:
Experiment in all cases: In vitro percent disease control (radii of spore growth on agar)
Assay type in all cases: cell-based
[1] = system: Alternaria mali; conditions: for inhibition of growth at 50 ppm / inhibition of growth at 100 ppm: Alternaria mali, read-out: % controlled, Al.
Method in brief: (§1)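 Compounds in acetone (10% of final volume) diluted with water to 100 and 50 ppm, then mixed into potato-sucrose-agar with each fungus spotted centrally. Incubated several days in a growth room; percent disease control derived from radii of spore growth.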

[2] = system: Rhizopus sp.; conditions: for inhibition of growth at 50 ppm / inhibition of growth at 100 ppm: Rhizopus
Method in brief: as §1

[3] = system: Phytophthora capsisi; conditions: for inhibition of growth at 50 ppm / inhibition of growth at 100 ppm: Phytophthora, read-out: % controlled, Phy ca.
Method in brief: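 Compounds dissolved in acetone (10% of final volume) then water at 100 ppm and 50 ppm, mixed into potato-sucrose-agar; fungus spotted at plate centre and incubated several days. Percent disease control derived from radii of spore growth.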

[4] = system: Physalospora baccae; conditions: for inhibition of growth at 50 ppm / inhibition of growth at 100 ppm: read-out: % controlled, Phy ba.
Method in brief: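 Compounds at 100 and 50 ppm (10% acetone) mixed into potato-sucrose-agar, fungus spotted centrally and grown several days in a growth room. Percent disease control derived from radii of spore growth.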

[5] = system: Botryosphaeria dothidea Macrophoma sp.; conditions: for inhibition of growth at 50 ppm / inhibition of growth at 100 ppm: Botryosphaeria dothidea, read-out: % controlled, Bo.do (Ma.)
Method in brief: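 Compounds (100 and 50 ppm, 10% acetone in water) were mixed into potato-sucrose-agar and the fungus was spotted centrally, then incubated several days in a growth room. Percent disease control came from radii of spore growth.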

[6] = system: Glomerella cingulata; conditions: for inhibition of growth at 50 ppm / inhibition of growth at 100 ppm: Colletotrichum gloeosporioides, read-out: % controlled, Glo.
Method in brief: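 Compounds were dissolved in acetone (10% of final volume) plus water at 100 ppm and 50 ppm and mixed into potato-sucrose agar. G. cingulata was spotted centrally and incubated for several days in a growth room. Percent disease control was derived from the radii of spore growth.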

[7] = system: Pyricalaria oryzae; conditions: for inhibition of growth at 50 ppm: read-out: % controlled, Py. or., 50 ppm; for inhibition of growth at 100 ppm: read-out: % controlled, Py. or., 100 ppm
Method in brief: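 Compounds at 100 ppm and 50 ppm (10% acetone in water) mixed into potato-sucrose-agar, P. oryzae spotted centrally and incubated several days. Percent disease control derived from radii of spore growth.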

[8] = system: Rhizoctonia solani; conditions: for inhibition of growth at 50 ppm / inhibition of growth at 100 ppm: Rhizoctonia solani, read-out: % controlled, Rhy. so.
Method in brief: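 Test compounds at 100 ppm and 50 ppm (acetone 10% of final volume, then water) were mixed into potato-sucrose-agar, and the fungus was spotted at the dish centre. Dishes were incubated several days in a growth room. Percent disease control was derived from the radii of spore growth.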

[9] = system: Fusarium moniliforme
Method in brief: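 Compounds in 10% acetone/water at 100 and 50 ppm were mixed into potato-sucrose-agar, with Fusarium moniliforme spotted centrally. After several days' incubation, percent disease control was derived from radii of spore growth.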

[10] = system: Botry tris cinerea; conditions: for inhibition of growth at 50 ppm / inhibition of growth at 100 ppm: read-out: % controlled, Bo ci.
Method in brief: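 Compounds at 100 and 50 ppm (acetone 10% of final volume, rest water) mixed into potato-sucrose agar; Botrytis cinerea spotted at dish centre. After several days' incubation, percent disease control calculated from radii of spore growth.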

[11] = 50 ppm, read-out: % controlled, Rhi. sp.
[12] = 100 ppm, read-out: % controlled, Rhi. sp.

Row | Structure (SMILES) | inhibition of growth at 50 ppm ([1]; 50 ppm) | inhibition of growth at 100 ppm ([1]; 100 ppm) | inhibition of growth at 50 ppm [2, 11] | inhibition of growth at 100 ppm [2, 12] | inhibition of growth at 50 ppm ([3]; 50 ppm) | inhibition of growth at 100 ppm ([3]; 100 ppm) | inhibition of growth at 50 ppm ([4]; 50 ppm) | inhibition of growth at 100 ppm ([4]; 100 ppm) | inhibition of growth at 50 ppm ([5]; 50 ppm) | inhibition of growth at 100 ppm ([5]; 100 ppm) | inhibition of growth at 50 ppm ([6]; 50 ppm) | inhibition of growth at 100 ppm ([6]; 100 ppm) | inhibition of growth at 50 ppm [7] | inhibition of growth at 100 ppm [7] | inhibition of growth at 50 ppm ([8]; 50 ppm) | inhibition of growth at 100 ppm ([8]; 100 ppm) | % controlled, Fu. mo. ([9]; 50 ppm) | % controlled, Fu. mo. ([9]; 100 ppm) | inhibition of growth at 50 ppm ([10]; 50 ppm) | inhibition of growth at 100 ppm ([10]; 100 ppm) | further results
1 | CCOc1ccc([Si](C)(C)C[Si](Cn2cncn2)(c2ccc(F)cc2)c2ccc(Cl)cc2)cc1 (stereo not shown) [2-(4-chlorophenyl)-4-(4-ethoxyphenyl)-2-(4-fluorophenyl)-4-methyl-2,4-disila-1-(1H-1,2,4-triazol-1-yl)pentane] | 75% | 79% | 50% | 50% | 23% | 25% | 69% | 69% | 74% | 79% | 87% | 87% | 100% | 100% | 96% | 96% | 46% | 46% | 90% | 90% | –
2 | CCOc1ccc([Si](C)(C)C[Si](C)(Cn2cncn2)c2ccc(F)cc2)cc1 (stereo not shown) [4-(4-ethoxyphenyl)-2-(4-fluorophenyl)-2,4-dimethyl-2,4-disila-1-(1H-1,2,4-triazol-1-yl)pentane] | 63% | 72% | – | 43% | 50% | 60% | 53% | 74% | 74% | 78% | 71% | 77% | 100% | 100% | 78% | 78% | 58% | 63% | 69% | 66% | inhibition of growth at 50 ppm ([2]; read-out: % controlled, Rhi. sp., 50 ppm): 19%
3 | COc1ccc([Si](C)(Cn2cncn2)C[Si](C)(C)c2ccc(Cl)cc2)cc1 (stereo not shown) [4-(4-chlorophenyl)-2-(4-methoxyphenyl)-2,4-dimethyl-2,4-disila-1-(1H-1,2,4-triazol-1-yl)pentane] | 30% | 62% | 32% | 48% | 43% | 59% | 50% | 60% | 34% | 66% | 56% | 82% | 100% | 100% | 100% | 100% | 28% | 41% | 40% | 80% | –
4 | C[Si](C)(C[Si](C)(Cn1cncn1)c1ccc(F)cc1)c1ccc(F)cc1 (stereo not shown) [2,4-bis(4-fluorophenyl)-2,4-dimethyl,2,4-disila-1-(1H-1,2,4-triazol-1-yl)pentane] | 38% | 44% | 24% | 26% | 3% | 6% | 22% | 22% | 40% | 43% | 72% | 73% | 50% | 54% | 57% | 60% | 35% | 38% | 0% | 10% | –
5 | C=CC[Si](C[Si](CC)(Cn1cncn1)c1ccc(OCC)cc1)(c1ccc(F)cc1)c1ccc(F)cc1 (stereo not shown) [6-(4-ethoxyphenyl)-4,4-bis(4-fluorophenyl)-6-ethyl-4,6-disila-7-(1H-1,2,4-triazol-1-yl)-1-heptane] | – | – | – | – | – | – | – | – | – | – | – | – | – | – | – | – | 90% | 90% | – | – | % controlled, Al. ([1]; 50 ppm): 100%; % controlled, Al. ([1]; 100 ppm): 100%; % controlled, Rhi. sp. ([2]; 50 ppm): 80%; % controlled, Rhi. sp. ([2]; 100 ppm): 90%; % controlled, Phy ca. ([3]; 50 ppm): 80%; % controlled, Phy ca. ([3]; 100 ppm): 90%; % controlled, Phy ba. ([4]; 50 ppm): 60%; % controlled, Phy ba. ([4]; 100 ppm): 75%; % controlled, Bo.do (Ma.) ([5]; 50 ppm): 65%; % controlled, Bo.do (Ma.) ([5]; 100 ppm): 69%; % controlled, Glo. ([6]; 50 ppm): 80%; % controlled, Glo. ([6]; 100 ppm): 80%; % controlled, Py. or. ([7]; 50 ppm): 70%; % controlled, Py. or. ([7]; 100 ppm): 75%; % controlled, Rhy. so. ([8]; 50 ppm): 100%; % controlled, Rhy. so. ([8]; 100 ppm): 100%; % controlled, Bo ci. ([10]; 50 ppm): 60%; % controlled, Bo ci. ([10]; 100 ppm): 60%
6 | C=CC[Si](C[Si](C)(Cn1cncn1)c1ccc(F)cc1)(c1ccc(F)cc1)c1ccc(F)cc1 (stereo not shown) [4,4,6-tris(4-fluorophenyl)-6-methyl-4,6-disila-7-(1H-1,2,4-triazole-1-yl)-1-heptane] | 63% | 72% | 19% | 43% | 50% | 60% | 53% | 74% | 74% | 78% | 71% | 77% | 100% | 100% | 78% | 78% | 58% | 63% | 69% | 66% | –
7 | C=CC[Si](C)(Cn1cncn1)C[Si](CC=C)(CC=C)CC=C (stereo not shown) [4-methyl-6-bis(2-propenyl)-4,6-disila-4-(1H-1,2,4-triazol-1-ylmethyl)-1,8-nonadiene] | 75% | 95% | 60% | 80% | 45% | 50% | 80% | 85% | 70% | 75% | 82% | 87% | 100% | 100% | 96% | 96% | 46% | 65% | 60% | 80% | –
8 | COc1ccc([Si](Cn2cncn2)(C[Si](C)(C)c2ccc(Cl)cc2)c2ccc(Cl)cc2)cc1 (stereo not shown) [2,4-bis(4-chlorophenyl)-2-(4-methoxyphenyl)-4-methyl-2,4-disila-1-(1H-1,2,4-triazol-1-yl)pentane] | 74% | 89% | 46% | 50% | 45% | 65% | 76% | 79% | 75% | 79% | 76% | 87% | 100% | 100% | 90% | 92% | 42% | 48% | 40% | 43% | –

From patent US5235061A, “Fungicidal (1H-1,2,4-triazolyl)disilaalkanes” (priority 1991, dated 1993)
